One block for each molecule: values may come before it.
Experiments:
[1] = test system: imagoes of the tiger mosquito, Aedes albopictus; test: noxious-insect repellency test (treated forearm in a cage of tiger mosquitoes, percent repellency from biting marks); format: in vivo; conditions: for Percent repellency: an hour after application; for noxious-insect repelling effect and durability (result in words): lotion or milky lotion containing the compound, tiger mosquito imagoes
Experimental: In each example, the noxious-insect repellency test was conducted as follows:
Test method of noxious-insect repelling effect and durability thereof In order to assess the repelling effect against imagoes of the tiger mosquito, Aedes albopictus, the following test was conducted at a room temperature of 30° C. and a relative humidity of 70% in an air-conditioned room. 10 ml each of test samples was applied to left and right forearms. Each treated forearm was introduced into a wire gauze cage (20 cm L.×15 cm Dia.) containing 50 female and 50 male tiger mosquitoes 5-7 days old after eclosion, for 15 minutes to afford time for biting. The assessment was repeated 30 minutes, 1 hour, 2 hours, 4 hours and 6 hours after the test sample was applied. The number of marks made by biting within each biting time was counted and a percent repellency was calculated using the following formula:
Percent repellency=(X−Y)/X×100 (%)
X: the number of the marks made by biting when the test sample was not applied,
Y: the number of the marks made by biting when the test sample was applied.

[2] = solubility in a 90 wt. % ethanol aqueous solution; format: physicochemical; design: key: ◯: Soluble; X: Insoluble
Experimental: (§1) With the purpose of investigating the properties of the compounds to be used for the present invention, solubilities in a 90 wt. % ethanol aqueous solution and stabilities at 0° C., room temperature and 40° C., of hydroxymethyl-menthol, 2-hydroxymethyl-2-butyl-cyclopentanol and 2-(1-hydroxyisopropyl)-5,6-dimethyl-cyclohexanone, were investigated. […] Furthermore, it can be understood that the quantity of the repellent compound is preferred to be at most 20% by weight, in view of touch in use.

[3] = stability in a 90 wt. % ethanol aqueous solution at 0° C., room temperature and 40° C.; format: physicochemical; design: key: ◯: Stable; X: Precipitated
Experimental: as §1

[4] = content 0.1% (wt. %) in 40 wt. % ethanol aqueous solution
[5] = content 1% (wt. %) in 40 wt. % ethanol aqueous solution
[6] = content 3% (wt. %) in 40 wt. % ethanol aqueous solution
[7] = 0° C., content 10% (wt. %) in 90 wt. % ethanol aqueous solution
[8] = 0° C., content 20% (wt. %) in 90 wt. % ethanol aqueous solution
[9] = 0° C., content 50% (wt. %) in 90 wt. % ethanol aqueous solution
[10] = 0° C., content 90% (wt. %) in 90 wt. % ethanol aqueous solution
[11] = 0° C., content 95% (wt. %) in 90 wt. % ethanol aqueous solution
[12] = 40° C., content 10% (wt. %) in 90 wt. % ethanol aqueous solution
[13] = 40° C., content 20% (wt. %) in 90 wt. % ethanol aqueous solution
[14] = 40° C., content 50% (wt. %) in 90 wt. % ethanol aqueous solution
[15] = 40° C., content 90% (wt. %) in 90 wt. % ethanol aqueous solution
[16] = 40° C., content 95% (wt. %) in 90 wt. % ethanol aqueous solution
[17] = room temperature, content 10% (wt. %) in 90 wt. % ethanol aqueous solution
[18] = room temperature, content 20% (wt. %) in 90 wt. % ethanol aqueous solution
[19] = room temperature, content 50% (wt. %) in 90 wt. % ethanol aqueous solution
[20] = room temperature, content 90% (wt. %) in 90 wt. % ethanol aqueous solution
[21] = room temperature, content 95% (wt. %) in 90 wt. % ethanol aqueous solution

- Solubility [2, 7]: ◯
- Solubility [2, 8]: ◯
- Solubility [2, 9]: ◯
- Solubility [2, 10]: ◯
- Solubility [2, 11]: ◯
- Solubility [2, 12]: ◯
- Solubility [2, 13]: ◯
- Solubility [2, 14]: ◯
- Solubility [2, 15]: ◯
- Solubility [2, 16]: ◯
- Solubility [2, 17]: ◯
- Solubility [2, 18]: ◯
- Solubility [2, 19]: ◯
- Solubility [2, 20]: ◯
- Solubility [2, 21]: ◯
- Stability [3, 7]: ◯
- Stability [3, 8]: ◯
- Stability [3, 9]: ◯
- Stability [3, 10]: ◯
- Stability [3, 11]: X
- Stability [3, 12]: ◯
- Stability [3, 13]: ◯
- Stability [3, 14]: ◯
- Stability [3, 15]: ◯
- Stability [3, 16]: ◯
- Stability [3, 17]: ◯
- Stability [3, 18]: ◯
- Stability [3, 19]: ◯
- Stability [3, 20]: ◯
- Stability [3, 21]: X
Molecule: CCCCC1(CO)CCCC1O (stereo not drawn) [2-Hydroxymethyl-2-butyl-cyclopentanol, 2-hydroxymethyl-2-butyl-cyclopentanol]
- Percent repellency [1, 4]: 24%
- Percent repellency [1, 5]: 60%
- Percent repellency [1, 6]: 88%

Molecule: CC1CCC(=O)C(CO)C1C (stereo not drawn) [2-hydroxymethyl-3,4-dimethyl-cyclohexanone]
- noxious-insect repelling effect and durability (result in words) [1]: excellent noxious-insect repelling effect and durability

Molecule: CCCC(O)C1C(=O)CCC1CC (stereo not drawn) [2-(1-hydroxybutyl)-3-ethyl-cyclopentanone]
- noxious-insect repelling effect and durability (result in words) [1]: excellent noxious-insect repelling effect and durability

Molecule: CCCCCC(O)C1C(=O)C2(C)CCC1C2(C)C (stereo not drawn) [3-(1-hydroxyhexyl)-camphor, reference compound]
- noxious-insect repelling effect and durability (result in words) [1]: does not exhibit the repelling effect

Molecule: C=C1C(C)CCC(C(C)(C)O)C1O (stereo not drawn) [MMED, p-menthane-2-methylene-3,8-diol]
- noxious-insect repelling effect and durability (result in words) [1]: excellent noxious-insect repelling effect and durability

Molecule: CC(O)C1CCCCCCCCCCC1=O (stereo not drawn) [2-(1-hydroxyethyl)-cyclododecanone]
- noxious-insect repelling effect and durability (result in words) [1]: excellent noxious-insect repelling effect and durability

Molecule: CC(O)C1CCCCCCC1O (stereo not drawn) [2-(1-hydroxyethyl)-cyclooctanol]
- noxious-insect repelling effect and durability (result in words) [1]: excellent noxious-insect repelling effect and durability

Molecule: CC1CCC(C(C)(C)O)C(=O)C1C (stereo not drawn) [8-hydroxy-2-methyl-p-menthan-3-one]
- Percent repellency [1, 4]: 30%
- Percent repellency [1, 5]: 70%
- Percent repellency [1, 6]: 94%

Molecule: CCCCC(O)C1CC(C)CCC1=O (stereo not drawn) [2-(1-hydroxyamyl)-4-methyl-cyclohexanone]
- noxious-insect repelling effect and durability (result in words) [1]: excellent noxious-insect repelling effect and durability

Molecule: CC1CCC(=O)C(C(C)O)C1 (stereo not drawn) [2-(1-hydroxyethyl)-4-methyl-cyclohexanone]
- noxious-insect repelling effect and durability (result in words) [1]: excellent noxious-insect repelling effect and durability

Molecule: CCC(O)C1C(=O)C2(C)CCC1C2(C)C (stereo not drawn) [3-(1-hydroxypropyl)-camphor]
- noxious-insect repelling effect and durability (result in words) [1]: excellent noxious-insect repelling effect and durability

Molecule: CC1CCC(=O)C(CO)C1 (stereo not drawn) [2-hydroxymethyl-4-methyl-cyclohexanone]
- noxious-insect repelling effect and durability (result in words) [1]: excellent noxious-insect repelling effect and durability

Molecule: p-menthane-2-hexyl-3,8-diol
- noxious-insect repelling effect and durability (result in words) [1]: excellent noxious-insect repelling effect and durability

Molecule: CCC1CC(O)C(CO)C1 (stereo not drawn) [2-hydroxymethyl-4-ethyl-cyclopentanol]
- noxious-insect repelling effect and durability (result in words) [1]: excellent noxious-insect repelling effect and durability

— patent publication US6372804B1, “Noxious-insect repellent” (Kanebo, Ltd., priority 1991, dated 2002)
